Data from US10561658B2, “Thieno- and pyrrolopyrimidine analogues as anticancer agents and methods of use thereof” (UNIVERSITY OF MARYLAND, BALTIMORE COUNTY, priority 2015, dated 2020).

Key:
[1] = molecular target: MET (cMet) (Homo sapiens, UniProt P08581); assay: Select Screen kinase profiling; type: biochemical
Description: (§1) The thieno[3,2-d]pyrimidine scaffold has been used extensively in the design of kinase inhibitors.

[2] = molecular target: PRKD1 (PKC mu) (Homo sapiens, UniProt Q15139); assay: Select Screen kinase profiling; type: biochemical
Description: as §1

[3] = In vivo systemic (IP) toxicity, body weight
Description: When dosing was completed, the mice were monitored for 14 days to determine any toxicity. In mice the best indicator of toxicity is weight loss.

[4] = system: melanoma tumor; assay: In vivo activity screen, intra-tumor injection; set-up: species or system mice; details: intra-tumor injection 0.01 mg/100 mm^3 tumor, 5 days on/2 days off, 21 days
Description: The asterisk denotes […] when compared to the vehicle only (n=6-10 mice). Melanoma is viewed as resistant to nucleoside analogues, since traditional FDA-approved nucleosides have minimal effects on growth inhibition (100-90% growth percent) and apoptosis (5-10% cell death).

Chain of PRKD1 (PKC mu) (Q15139 whole entry): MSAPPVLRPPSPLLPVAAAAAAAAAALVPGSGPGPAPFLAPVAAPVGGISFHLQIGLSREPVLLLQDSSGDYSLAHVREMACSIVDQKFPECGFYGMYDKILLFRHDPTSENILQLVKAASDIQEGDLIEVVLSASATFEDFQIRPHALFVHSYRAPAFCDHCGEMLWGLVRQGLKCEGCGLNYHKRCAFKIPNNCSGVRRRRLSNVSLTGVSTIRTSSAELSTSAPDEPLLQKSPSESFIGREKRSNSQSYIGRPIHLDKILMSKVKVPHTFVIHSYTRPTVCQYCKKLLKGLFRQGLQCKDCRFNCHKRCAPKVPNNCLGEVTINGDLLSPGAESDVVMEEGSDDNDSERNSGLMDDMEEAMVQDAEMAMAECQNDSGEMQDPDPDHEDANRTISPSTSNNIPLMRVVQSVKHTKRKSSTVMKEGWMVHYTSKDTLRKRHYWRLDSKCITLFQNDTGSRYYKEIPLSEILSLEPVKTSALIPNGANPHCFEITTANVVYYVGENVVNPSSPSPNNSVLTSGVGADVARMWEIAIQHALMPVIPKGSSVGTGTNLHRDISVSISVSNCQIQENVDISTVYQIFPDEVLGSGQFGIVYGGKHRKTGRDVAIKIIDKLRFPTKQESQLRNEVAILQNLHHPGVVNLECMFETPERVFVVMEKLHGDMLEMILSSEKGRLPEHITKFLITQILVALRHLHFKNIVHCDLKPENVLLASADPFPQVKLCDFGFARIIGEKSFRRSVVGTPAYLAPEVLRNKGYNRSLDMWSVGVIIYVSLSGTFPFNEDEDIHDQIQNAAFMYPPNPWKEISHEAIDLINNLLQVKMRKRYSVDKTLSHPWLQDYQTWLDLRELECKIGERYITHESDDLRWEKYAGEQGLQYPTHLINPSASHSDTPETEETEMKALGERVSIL
Chain of MET (cMet) (P08581 25-1390): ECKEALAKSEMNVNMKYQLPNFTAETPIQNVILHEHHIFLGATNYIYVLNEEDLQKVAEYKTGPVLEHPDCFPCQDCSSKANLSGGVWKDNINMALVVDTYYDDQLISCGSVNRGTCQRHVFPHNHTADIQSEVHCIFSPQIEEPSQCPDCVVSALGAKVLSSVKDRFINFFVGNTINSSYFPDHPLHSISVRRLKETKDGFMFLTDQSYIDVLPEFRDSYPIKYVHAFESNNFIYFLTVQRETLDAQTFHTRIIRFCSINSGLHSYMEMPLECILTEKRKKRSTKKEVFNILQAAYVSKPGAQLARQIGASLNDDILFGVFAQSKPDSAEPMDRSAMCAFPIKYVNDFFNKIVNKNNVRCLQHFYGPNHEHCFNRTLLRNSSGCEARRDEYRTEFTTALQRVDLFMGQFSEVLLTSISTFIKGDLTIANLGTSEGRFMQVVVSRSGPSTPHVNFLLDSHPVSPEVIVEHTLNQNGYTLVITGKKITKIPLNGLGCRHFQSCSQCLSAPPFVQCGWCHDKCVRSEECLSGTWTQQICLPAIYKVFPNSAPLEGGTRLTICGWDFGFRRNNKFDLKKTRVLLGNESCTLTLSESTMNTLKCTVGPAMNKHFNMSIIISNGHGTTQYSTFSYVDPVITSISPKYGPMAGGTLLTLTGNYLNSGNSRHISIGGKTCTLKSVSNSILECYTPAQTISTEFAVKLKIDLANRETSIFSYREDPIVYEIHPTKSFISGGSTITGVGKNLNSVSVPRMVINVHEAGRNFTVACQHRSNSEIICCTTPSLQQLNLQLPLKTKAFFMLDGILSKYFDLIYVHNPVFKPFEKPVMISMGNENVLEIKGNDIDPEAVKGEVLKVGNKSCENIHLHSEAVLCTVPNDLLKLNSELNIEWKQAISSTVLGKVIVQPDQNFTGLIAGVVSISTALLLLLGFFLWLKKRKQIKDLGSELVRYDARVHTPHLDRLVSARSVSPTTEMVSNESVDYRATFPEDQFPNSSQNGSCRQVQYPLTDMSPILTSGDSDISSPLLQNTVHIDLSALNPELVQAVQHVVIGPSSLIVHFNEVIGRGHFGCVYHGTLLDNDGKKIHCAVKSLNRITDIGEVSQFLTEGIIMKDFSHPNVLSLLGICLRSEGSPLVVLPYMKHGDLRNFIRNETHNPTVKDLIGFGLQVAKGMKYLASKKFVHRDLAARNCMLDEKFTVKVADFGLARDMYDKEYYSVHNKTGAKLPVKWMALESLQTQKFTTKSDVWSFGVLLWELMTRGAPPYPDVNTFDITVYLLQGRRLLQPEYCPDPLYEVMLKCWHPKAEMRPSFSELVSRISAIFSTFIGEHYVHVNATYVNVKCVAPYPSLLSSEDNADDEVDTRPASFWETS

Compound: Clc1nc(Cl)c2sccc2n1 [Compound 1, 2,4-Dichlorothieno[3,2-d]pyrimidine]
- inhibition at 5 µM [1]: < 40%
- inhibition at 5 µM [2]: < 40%
- body weight ([3]; 20 mg/kg IP, 5 days): maintaining their weight
- toxicity when administered systemically ([3]; daily IP doses 5 consecutive days, monitored 14 days): non-toxic
- anti-cancer activity (tumor responsiveness) in vivo [4]: comparable to the current standard of care, temozolomide
